PubChem BioAssay AID256 (DTP/NCI, 2004)
Inconclusive results and toxic doses are left out. Rule for the calls: active = survival T/C of 150% or more; inactive = T/C below 125% in these data.

System: CD2F1 mice, L1210 leukemia ip, survival T/C
Experiment: NCI In Vivo Anticancer Drug Screen. Data for tumor model L1210 Leukemia (intraperitoneal) in CD2F1 (CDF1) mice
Conditions: higher = longer survival
Procedure, shortened: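 Compound-dosed mice with transplantable tumor versus matched vehicle controls; endpoint ratio T/C reported.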

[1] = endpoint: mean survival time, dose: 100.0 mg/kg/injection, schedule: Q04DX002 (ip), vehicle: saline with Tween-80
[2] = endpoint: mean survival time, dose: 200.0 mg/kg/injection, schedule: Q04DX002 (ip), vehicle: saline with Tween-80
[3] = endpoint: mean survival time, dose: 200.0 mg/kg/injection, schedule: Q04DX003 (ip), vehicle: saline with Tween-80
[4] = endpoint: mean survival time, dose: 400.0 mg/kg/injection, schedule: Q04DX003 (ip), vehicle: saline with Tween-80
[5] = endpoint: mean survival time, dose: 100.0 mg/kg/injection, schedule: Q04DX003 (ip), vehicle: saline with Tween-80
[6] = endpoint: mean survival time, dose: 100.0 mg/kg/injection, schedule: Q04DX002 (ip), vehicle: saline
[7] = endpoint: mean survival time, dose: 200.0 mg/kg/injection, schedule: Q04DX002 (ip), vehicle: saline
[8] = endpoint: mean survival time, dose: 100.0 mg/kg/injection, schedule: Q01DX009 (ip), vehicle: saline with Tween-80
[9] = endpoint: mean survival time, dose: 200.0 mg/kg/injection, schedule: Q01DX009 (ip), vehicle: saline with Tween-80
[10] = endpoint: mean survival time, dose: 400.0 mg/kg/injection, schedule: Q01DX009 (ip), vehicle: saline with Tween-80

Measured: T/C

CCCCC(=O)OCC[N+](C)(C)C
inactive: [1] 100 % of control | [2] 95 % of control | endpoint: mean survival time, dose: 400.0 mg/kg/injection, schedule: Q04DX002 (ip), vehicle: saline with Tween-80 91 % of control

N#C/C(=C\c1ccc(-c2ccccc2)cc1)c1ccc([N+](=O)[O-])cc1
inactive: [3] 86 % of control | [4] 94 % of control

OCCCc1nc2ccccc2[nH]1
inactive: [5] 102 % of control | [3] 107 % of control | [4] 98 % of control

ClCc1cnc[nH]1
inactive: [6] 103 % of control | [7] 96 % of control

CCCCCC[Se][Se]CCCCCC
inactive: endpoint: median survival time, dose: 1.56 mg/kg/injection, schedule: Q01DX009 (ip), vehicle: Klucel (hydroxypropylcellulose) (HPC) 98 % of control | endpoint: median survival time, dose: 3.12 mg/kg/injection, schedule: Q01DX009 (ip), vehicle: Klucel (hydroxypropylcellulose) (HPC) 100 % of control | endpoint: median survival time, dose: 6.25 mg/kg/injection, schedule: Q01DX009 (ip), vehicle: Klucel (hydroxypropylcellulose) (HPC) 101 % of control | endpoint: median survival time, dose: 12.5 mg/kg/injection, schedule: Q01DX009 (ip), vehicle: Klucel (hydroxypropylcellulose) (HPC) 97 % of control

O=C(Nc1ccccc1[N+](=O)[O-])Oc1ccccc1
inactive: endpoint: mean survival time, dose: 75.0 mg/kg/injection, schedule: Q04DX002 (ip), vehicle: saline with Tween-80 96 % of control | endpoint: mean survival time, dose: 150.0 mg/kg/injection, schedule: Q04DX002 (ip), vehicle: saline with Tween-80 96 % of control | endpoint: mean survival time, dose: 300.0 mg/kg/injection, schedule: Q04DX002 (ip), vehicle: saline with Tween-80 96 % of control

CCC1([N+](=O)[O-])COC(c2ccc(Cl)cc2)OC1 (centres undefined)
inactive: endpoint: mean survival time, dose: 100.0 mg/kg/injection, schedule: Q01DX001 (ip), vehicle: Klucel (hydroxypropylcellulose) (HPC) 104 % of control | endpoint: mean survival time, dose: 200.0 mg/kg/injection, schedule: Q01DX001 (ip), vehicle: Klucel (hydroxypropylcellulose) (HPC) 86 % of control | endpoint: mean survival time, dose: 400.0 mg/kg/injection, schedule: Q01DX001 (ip), vehicle: Klucel (hydroxypropylcellulose) (HPC) 111 % of control

Cc1cc(O)c2c(c1)C(=O)c1cccc(O)c1C2=O
inactive: endpoint: mean survival time, dose: 6.25 mg/kg/injection, schedule: Q01DX001 (ip), vehicle: saline 115 % of control | endpoint: mean survival time, dose: 12.5 mg/kg/injection, schedule: Q01DX001 (ip), vehicle: saline 112 % of control | endpoint: mean survival time, dose: 25.0 mg/kg/injection, schedule: Q01DX001 (ip), vehicle: saline 102 % of control

O=C([O][Sb]([O]C(=O)C(F)(F)F)([c]1ccccc1)([c]1ccccc1)[c]1ccccc1)C(F)(F)F
inactive: endpoint: mean survival time, dose: 50.0 mg/kg/injection, schedule: Q04DX002 (ip), vehicle: saline with Tween-80 93 % of control | [1] 93 % of control | [2] 97 % of control

Cc1cc2c(c3oc(C4(C)OC4C4OC4C)cc(=O)c13)C(=O)c1c(O)c(C3CC(C)(N(C)C)C(O)C(C)O3)cc(C3CC(N(C)C)C(O)C(C)O3)c1C2=O (centres undefined)
inactive: endpoint: mean survival time, dose: 0.07 mg/kg/injection, schedule: Q01DX009 (oral), vehicle: saline 87 % of control | endpoint: mean survival time, dose: 0.13 mg/kg/injection, schedule: Q01DX009 (oral), vehicle: saline 93 % of control | endpoint: mean survival time, dose: 0.25 mg/kg/injection, schedule: Q01DX001 (oral), vehicle: saline 98 % of control | endpoint: mean survival time, dose: 0.25 mg/kg/injection, schedule: Q01DX009 (oral), vehicle: saline 92 % of control | endpoint: mean survival time, dose: 0.5 mg/kg/injection, schedule: Q01DX001 (oral), vehicle: saline 97 % of control | endpoint: mean survival time, dose: 0.5 mg/kg/injection, schedule: Q01DX009 (oral), vehicle: saline 100 % of control | endpoint: mean survival time, dose: 1.0 mg/kg/injection, schedule: Q01DX001 (oral), vehicle: saline 96 % of control | endpoint: mean survival time, dose: 2.0 mg/kg/injection, schedule: Q01DX001 (oral), vehicle: saline 97 % of control | endpoint: mean survival time, dose: 1.0 micrograms/kg/injection, schedule: Q03HX024 (ip), vehicle: saline 106 % of control | endpoint: mean survival time, dose: 1.3 micrograms/kg/injection, schedule: Q01DX009 (ip), vehicle: water 101 % of control | endpoint: mean survival time, dose: 2.0 micrograms/kg/injection, schedule: Q03HX024 (ip), vehicle: saline 111 % of control | endpoint: mean survival time, dose: 2.5 micrograms/kg/injection, schedule: Q01DX009 (ip), vehicle: water 112 % of control | endpoint: mean survival time, dose: 4.0 micrograms/kg/injection, schedule: Q01DX009 (ip), vehicle: saline 102 % of control | endpoint: mean survival time, dose: 4.0 micrograms/kg/injection, schedule: Q03HX024 (ip), vehicle: saline 111 % of control | endpoint: mean survival time, dose: 5.0 micrograms/kg/injection, schedule: Q01DX009 (ip), vehicle: water 108 % of control | endpoint: mean survival time, dose: 8.0 micrograms/kg/injection, schedule: Q01DX009 (ip), vehicle: saline 109 % of control | endpoint: mean survival time, dose: 8.0 micrograms/kg/injection, schedule: Q03HX008 (ip), vehicle: saline 103 % of control | endpoint: mean survival time, dose: 8.0 micrograms/kg/injection, schedule: Q03HX024 (ip), vehicle: saline 112 % of control | endpoint: mean survival time, dose: 10.0 micrograms/kg/injection, schedule: Q01DX009 (ip), vehicle: water 112 % of control | endpoint: mean survival time, dose: 15.0 micrograms/kg/injection, schedule: Q01DX009 (ip), vehicle: saline 109 % of control | endpoint: mean survival time, dose: 15.0 micrograms/kg/injection, schedule: Q03HX008 (ip), vehicle: saline 112 % of control | endpoint: mean survival time, dose: 15.0 micrograms/kg/injection, schedule: Q08DX002 (ip), vehicle: saline 98 % of control | endpoint: mean survival time, dose: 20.0 micrograms/kg/injection, schedule: Q01DX009 (ip), vehicle: water 106 % of control | endpoint: mean survival time, dose: 30.0 micrograms/kg/injection, schedule: Q01DX009 (ip), vehicle: saline 114 % of control | endpoint: mean survival time, dose: 30.0 micrograms/kg/injection, schedule: Q03HX008 (ip), vehicle: saline 113 % of control | endpoint: mean survival time, dose: 30.0 micrograms/kg/injection, schedule: Q08DX002 (ip), vehicle: saline 98 % of control | endpoint: mean survival time, dose: 40.0 micrograms/kg/injection, schedule: Q01DX009 (ip), vehicle: water 91 % of control | endpoint: mean survival time, dose: 60.0 micrograms/kg/injection, schedule: Q03HX008 (ip), vehicle: saline 118 % of control | endpoint: mean survival time, dose: 60.0 micrograms/kg/injection, schedule: Q08DX002 (ip), vehicle: saline 106 % of control | endpoint: mean survival time, dose: 120.0 micrograms/kg/injection, schedule: Q08DX002 (ip), vehicle: saline 121 % of control

CCCCCCCCCCCCOc1ccc(Cl)cc1Sc1cc(Cl)ccc1OCCCCCCCCCCCC
inactive: endpoint: mean survival time, dose: 100.0 mg/kg/injection, schedule: Q01DX001 (ip), vehicle: saline with Tween-80 92 % of control | endpoint: mean survival time, dose: 200.0 mg/kg/injection, schedule: Q01DX001 (ip), vehicle: saline with Tween-80 93 % of control | endpoint: mean survival time, dose: 400.0 mg/kg/injection, schedule: Q01DX001 (ip), vehicle: saline with Tween-80 86 % of control

Cc1ccc(S(=O)(=O)Cl)cc1
inactive: [6] 91 % of control | [7] 100 % of control

CCCCCCCCCCCCOCCOCCOCCOCCO
inactive: [1] 98 % of control | [2] 102 % of control

O=C1c2ccccc2C(=O)c2c(Sc3ccccc3)cccc21
inactive: [8] 97 % of control | [9] 93 % of control | [10] 92 % of control

CC(NC(=O)c1ccc(Cl)cc1Cl)c1ccccc1 (centres undefined)
inactive: endpoint: mean survival time, dose: 75.0 mg/kg/injection, schedule: Q04DX003 (ip), vehicle: saline with Tween-80 101 % of control | endpoint: mean survival time, dose: 150.0 mg/kg/injection, schedule: Q04DX003 (ip), vehicle: saline with Tween-80 101 % of control | endpoint: mean survival time, dose: 300.0 mg/kg/injection, schedule: Q04DX003 (ip), vehicle: saline with Tween-80 101 % of control

COc1cc(NC(C)=O)ccn1
inactive: [8] 95 % of control | [9] 96 % of control | [10] 102 % of control

COc1cc(OC)c2c(c1Cl)OC(C(C)=O)C2=O (centres undefined)
inactive: endpoint: mean survival time, dose: 50.0 mg/kg/injection, schedule: Q01DX009 (ip), vehicle: saline with Tween-80 97 % of control | [8] 102 % of control | [5] 93 % of control | [9] 96 % of control | [3] 102 % of control

NC(=S)N=Nc1c(O)cc(O)c2[nH]c(=O)ccc12
inactive: endpoint: mean survival time, dose: 100.0 mg/kg/injection, schedule: Q01DX001 (ip), vehicle: saline 109 % of control

Clc1ccc(C[P+](c2ccccc2)(c2ccccc2)c2ccccc2)c(Cl)c1
inactive: endpoint: mean survival time, dose: 5.0 mg/kg/injection, schedule: Q01DX009 (ip), vehicle: saline sonified 103 % of control | endpoint: mean survival time, dose: 5.0 mg/kg/injection, schedule: Q04DX003 (ip), vehicle: saline with Tween-80 92 % of control | endpoint: mean survival time, dose: 10.0 mg/kg/injection, schedule: Q04DX003 (ip), vehicle: saline with Tween-80 96 % of control | endpoint: mean survival time, dose: 12.5 mg/kg/injection, schedule: Q04DX003 (ip), vehicle: saline with Tween-80 100 % of control | endpoint: mean survival time, dose: 20.0 mg/kg/injection, schedule: Q04DX003 (ip), vehicle: saline with Tween-80 108 % of control | endpoint: mean survival time, dose: 25.0 mg/kg/injection, schedule: Q04DX003 (ip), vehicle: saline with Tween-80 93 % of control
